Test results: patent US9309275B2, “3′-deoxy nucleosides for the treatment of HCV” (Idenix Pharmaceuticals, Inc., priority 2013, dated 2016)
Like-named read-outs stand apart in the source and are kept apart here.

How the values were obtained:
[1] = Cytotoxicity evaluation, CellTiter-Blue Cell Viability Assay; assay type: cell-based; conditions: human
Procedure: (§1) For cytotoxicity evaluation, Zluc cells were treated with test compound as described herein, and cell viability was monitored using the CellTiter-Blue Cell Viability Assay (Promega) by adding 20 μL of the assay solution to each well. The plates were then incubated at 37° C./5% CO2 for at least 3 hours.

HCV genotype 1b replicon = assay: HCV replicon assay (Zluc luciferase reporter); assay type: cell-based
Procedure: Huh-7-derived cell line (Zluc) that harbors an HCV genotype 1b replicon and a luciferase reporter gene was grown in Dulbecco's Modified Eagle Medium (DMEM) supplemented with 10% fetal bovine serum, 2 mM GlutaMAX, 1% MEM nonessential amino acids, 100 IU/mL penicillin, 100 μg/mL streptomycin, and 0.5 mg/mL Geneticin® (G418). For dose response testing the cells were seeded in 96-well plates at 7.5×10^3 cells per well in a volume of 50 μL, and incubated at 37° C./5% CO2. Drug solutions were made up freshly in Huh-7 media as 2× stocks. Ten additional 5-fold dilutions were prepared from these stocks in DMEM without G418. At least three hours after Zluc cells were seeded, drug treatment was initiated by adding 50 μL of drug dilutions to the plates in duplicate. Final concentrations of drug ranged from 100 μM to […]. Cells were then incubated at 37° C./5% CO2. Alternatively, compounds were tested at two concentrations (1 μM and 10 μM). […] For this, media was removed from the plates via gentle tapping. Fifty microliters of ONE-glo luciferase assay reagent was added to each well. The plates were shaken gently for 3 min at room temperature and luminescence was measured on a Victor^3 V 1420 multilabel counter (Perkin Elmer) with a 1 second read time using a 700 nm cut-off filter. The EC50 values were calculated from dose response curves from the resulting best-fit equations determined by Microsoft Excel and XLfit 4.1 software. When screening at two fixed concentrations, the results were expressed as % inhibition at 1 μM and 10 μM.

Zluc cells = assay: Cytotoxicity evaluation, CellTiter-Blue Cell Viability Assay; assay type: cell-based; conditions: read-out: HCV Replicon CC50
Procedure: as §1

[2] = target: T1, HCV genotype 1b NS5B protein containing the S282T mutation (Hepatitis C virus genotype 1b, UniProt Q9WMX2, S2701T); assay: HCV polymerase enzyme assay, S282T mutant; assay type: biochemical; conditions: purified recombinant genotype 1b NS5B with S282T mutation; compounds tested as nucleoside triphosphates
T1 construct: HCV genotype 1b NS5B protein were used to generate recombinant HCV polymerases (with a deletion of the 21 carboxy terminal amino acids); made in house
Excerpt: (§2) Test compounds in the form of nucleoside triphosphates were examined for inhibitory activity against purified HCV polymerase in a standard assay. Bacterial expression constructs encoding the approximately 65 kDa HCV genotype 1b NS5B protein were used to generate recombinant HCV polymerases (with a deletion of the 21 carboxy terminal amino acids). Both the wild-type genotype 1b protein and protein containing the S282T mutation were expressed and purified for use in the enzymatic activity assay.
(§3) The enzymatic activity assay measured the inhibitory effect of increasing concentrations of test compound on the incorporation of α-[^33P]-labeled nucleotide into trichloroacetic acid-precipitable material. Recombinant polymerase and synthetic RNA template were combined in reaction buffer containing ribonucleoside triphosphates, α-[^33P]-labeled nucleotide and eight concentrations of test compound in three-fold dilutions. […]
(§4) Reactions were terminated by the addition of ice-cold trichloroacetic acid and sodium pyrophosphate to promote precipitation of newly-synthesized ribonucleic acid. Precipitable material from the reactions was collected by filtration onto 96-well filter plates, washed extensively with water, and quantified by liquid scintillation.
(§5) The inhibitory activity of test compounds was determined by fitting results to dose-response curves using XLfit software.

[3] = target: T2, wild-type HCV genotype 1b NS5B protein (Hepatitis C virus genotype 1b, UniProt Q9WMX2); assay: HCV polymerase enzyme assay, wild-type; assay type: biochemical
T2 construct: HCV genotype 1b NS5B protein were used to generate recombinant HCV polymerases (with a deletion of the 21 carboxy terminal amino acids); made in house
Excerpt: as §2, §3, §4, §5

[4] = Zluc cells, read-out: HCV Replicon CC50
[5] = read-out: HCV Replicon EC50, Huh-7-derived Zluc cells, 72 hours of incubation
[6] = Hepatitis C virus, 72 h, Huh-7-derived Zluc cells, 72 hours of incubation, read-out: HCV Replicon EC50
[7] = Huh-7-derived Zluc cells, 72 hours of incubation, read-out: HCV Replicon EC50
[8] = Zluc cells (HCV replicon cells)

SMILES: CC(C)OC(=O)[C@H](C)NP(=O)(OC[C@@H]1C[C@@](C)(F)[C@H](n2cnc3c(=O)[nH]c(N)nc32)O1)Oc1ccccc1 (single isomer, unassigned) [1b Diastereomer 1]
- CC50 at 72 h [1, 4]: > 50 µM
- EC50 (HCV genotype 1b replicon; [5]): 1 to 10 µM

SMILES: CCOc1nc(N)nc2c1ncn2[C@@H]1O[C@H](COP(=O)(N[C@H](C)C(=O)OC(C)C)Oc2ccccc2)C[C@@]1(C)F (single isomer, unassigned) [2a Diastereomer 1]
- CC50 at 72 h [1, 4]: > 50 µM
- EC50 (HCV genotype 1b replicon; [6]): > 10 µM

SMILES: CCOc1nc(N)nc2c1ncn2[C@@H]1O[C@H](COP(=O)(N[C@@H](C)C(=O)OC(C)C)Oc2ccccc2)C[C@@]1(C)F (single isomer, unassigned) [2b Diastereomer 1]
- CC50 at 72 h [1, 4]: > 50 µM
- EC50 (HCV genotype 1b replicon; [7]): > 10 µM

SMILES: CCOc1nc(N)nc2c1ncn2[C@@H]1O[C@H](COP(=O)(N[C@@H](C)C(=O)OC(C)C)Oc2ccccc2)C[C@@]1(C)F (single isomer, unassigned) [2b Diastereomer 2]
- CC50 (Zluc cells): > 50 µM
- EC50 (HCV genotype 1b replicon; [7]): 1 to 10 µM

SMILES: CC(C)OC(=O)[C@H](C)NP(=O)(OC[C@@H]1C[C@@](C)(F)[C@H](n2ccc(N)nc2=O)O1)Oc1ccccc1 (single isomer, unassigned) [3b Diastereomer 1]
- CC50 at 72 h [1, 4]: > 50 µM
- EC50 (HCV genotype 1b replicon; [6]): > 10 µM

SMILES: CC(C)OC(=O)[C@H](C)NP(=O)(OC[C@@H]1C[C@@](C)(F)[C@H](n2ccc(=O)[nH]c2=O)O1)Oc1ccccc1 (single isomer, unassigned) [4b Diastereomer 1]
- CC50 at 72 h [1, 4]: > 50 µM
- EC50 (HCV genotype 1b replicon; [7]): 0.25 to 1 µM

SMILES: CC(C)OC(=O)[C@H](C)NP(=O)(OC[C@@H]1C[C@@](C)(F)[C@H](n2ccc(=O)[nH]c2=O)O1)Oc1ccccc1 (single isomer, unassigned) [4b Diastereomer 2]
- CC50 (Zluc cells): > 50 µM
- EC50 (HCV genotype 1b replicon; [7]): 1 to 10 µM

SMILES: CC(C)OC(=O)[C@H](C)NP(=O)(OC[C@@H]1C[C@@](C)(F)[C@H](n2cnc3c(=O)[nH]c(N)nc32)O1)Oc1ccccc1 (single isomer, unassigned) [lb Diastereomer 2]
- CC50 (Zluc cells): > 50 µM
- EC50 (HCV genotype 1b replicon; [5]): > 10 µM

SMILES: C[C@@]1(F)C[C@@H](COP(=O)(O)OP(=O)(O)OP(=O)(O)O)O[C@H]1n1cnc2c(=O)[nH]c(N)nc21 [Compound 101]
- IC50 [2]: 1 to 10 µM
- IC50 [3]: < 250 nM

SMILES: C[C@@]1(F)C[C@@H](COP(=O)(O)OP(=O)(O)OP(=O)(O)O)O[C@H]1n1ccc(=O)[nH]c1=O [Compound 102]
- IC50 [2]: > 10 µM
- IC50 [3]: 1000 to 10000 nM

SMILES: C[C@@]1(F)C[C@@H](CO)O[C@H]1n1cnc2c(=O)[nH]c(N)nc21 [Compound 201]
- CC50 at 72 h [1, 8]: > 50 µM
- EC50 (HCV genotype 1b replicon; [6]): > 10 µM

SMILES: C[C@@]1(F)C[C@@H](CO)O[C@H]1n1ccc(=O)[nH]c1=O [Compound 202]
- CC50 at 72 h [1, 8]: > 50 µM
- EC50 (HCV genotype 1b replicon; [6]): > 10 µM
